Columns and labels:
Aspergillus flavus [1] = assay: Antifungal activity against Aspergillus flavus MTCC 3306 at 0.5 mg/ml after 72 hrs by well plate method; format: functional; details: MTCC 3306, 72 h, read-out: DIZ
[2] = Antifungal activity against Chrysosporium keratinophilum MTCC 3017 at 1 mg/ml after 72 hrs by well plate method; format: functional
Candida albicans [3] = assay: Antifungal activity against Candida albicans MTCC 2827 at 0.5 mg/ml after 72 hrs by well plate method; format: functional; details: MTCC 2827, 72 h, read-out: DIZ
Candida albicans [4] = assay: Antifungal activity against Candida albicans MTCC 2827 at 1 mg/ml after 72 hrs by well plate method; format: functional; details: MTCC 2827, 72 h, read-out: DIZ
Aspergillus flavus [5] = assay: Antifungal activity against Aspergillus flavus MTCC 3306 at 1 mg/ml after 72 hrs by well plate method; format: functional; details: MTCC 3306, 72 h, read-out: DIZ
[6] = Antifungal activity against Chrysosporium keratinophilum MTCC 3017 at 0.5 mg/ml after 72 hrs by well plate method; format: functional
[7] = system: Radical scavenging activity; assay: Antioxidant activity assessed as DPPH radical scavenging activity after 20 mins by UV-Vis spectrophotometric analysis; format: functional
Staphylococcus aureus [8] = assay: Antibacterial activity Staphylococcus aureus ATCC 25923 at 0.5 mg/ml after 24 hrs by well plate method; format: functional; details: ATCC 25923, 24 h, read-out: DIZ
Escherichia coli [9] = assay: Antibacterial activity Escherichia coli ATCC 25922 at 1 mg/ml after 24 hrs by well plate method; format: functional; details: ATCC 25922, 24 h, read-out: DIZ
Liver microsomes = assay: Antioxidant activity in Wistar rat liver microsomes assessed as inhibition of microsomal lipid peroxidation after 15 mins by MDA-TBA assay; format: functional, Microsome
Pseudomonas aeruginosa [10] = assay: Antibacterial activity Pseudomonas aeruginosa ATCC 27853 at 1 mg/ml after 24 hrs by well plate method; format: functional; details: ATCC 27853, 24 h, read-out: DIZ
Escherichia coli [11] = assay: Antibacterial activity Escherichia coli ATCC 25922 at 0.5 mg/ml after 24 hrs by well plate method; format: functional; details: ATCC 25922, 24 h, read-out: DIZ
Staphylococcus aureus [12] = assay: Antibacterial activity Staphylococcus aureus ATCC 25923 at 1 mg/ml after 24 hrs by well plate method; format: functional; details: ATCC 25923, 24 h, read-out: DIZ
Pseudomonas aeruginosa [13] = assay: Antibacterial activity Pseudomonas aeruginosa ATCC 27853 at 0.5 mg/ml after 24 hrs by well plate method; format: functional; details: ATCC 27853, 24 h, read-out: DIZ

Row | Compound | zone of inhibition at 500 µg/mL (Aspergillus flavus [1]) [mm] | inhibition zone (IZ) [2] [mm] | zone of inhibition at 500 µg/mL (Candida albicans [3]) [mm] | zone of inhibition at 1000 µg/mL (Candida albicans [4]) [mm] | zone of inhibition at 1000 µg/mL (Aspergillus flavus [5]) [mm] | inhibition zone (IZ) [6] [mm] | IC50 [7] [uM/ml] | zone of inhibition at 500 µg/mL (Staphylococcus aureus [8]) [mm] | zone of inhibition at 1000 µg/mL (Escherichia coli [9]) [mm] | IC50 (Liver microsomes) [uM/ml] | zone of inhibition at 1000 µg/mL (Pseudomonas aeruginosa [10]) [mm] | zone of inhibition at 500 µg/mL (Escherichia coli [11]) [mm] | zone of inhibition at 1000 µg/mL (Staphylococcus aureus [12]) [mm] | zone of inhibition at 500 µg/mL (Pseudomonas aeruginosa [13]) [mm]
1 | OC(Cn1cncn1)(Cn1cncn1)c1ccc(F)cc1F [FLUCONAZOLE] | 10 | 17 | 20 | 22 | 13 | 15 | – | – | – | – | – | – | – | –
2 | COc1cc(C2CC(c3cc4ccccc4o3)=NN2C(=O)Nc2ccccc2)ccc1O (stereo unspecified) | 1 | 3 | 1 | 2 | 2 | 2 | 121 | 2 | 2 | 116 | 2 | 1 | 3 | 1
3 | COc1cc(C2CC(c3cc4ccccc4o3)=NN2C(=O)Nc2ccc(O)c(O)c2)ccc1O (stereo unspecified) | 2 | 2 | 1 | 2 | 3 | 1 | 9.5 | 1 | 2 | 11 | 5 | 1 | 2 | 3
4 | CN[C@@H]1[C@H](O[C@H]2[C@H](O[C@H]3[C@H](O)[C@@H](O)[C@H](N=C(N)N)[C@@H](O)[C@@H]3N=C(N)N)O[C@@H](C)[C@]2(O)C=O)O[C@@H](CO)[C@H](O)[C@H]1O [STREPTOMYCIN] | – | – | – | – | – | – | – | 10 | 16 | – | 16 | 10 | 15 | 13
5 | COc1ccc(NC(=O)N2N=C(c3cc4ccccc4o3)CC2c2ccc(O)c(OC)c2)cc1 (stereo unspecified) | 3 | 4 | 3 | 5 | 4 | 2 | 25 | 1 | 13 | 29 | 7 | 1 | 2 | 5
6 | COc1cc(C2CC(c3cc4ccccc4o3)=NN2C(=O)Nc2ccc(O)cc2)ccc1O (stereo unspecified) | 2 | 2 | 2 | 4 | 3 | 1 | 17 | 1 | 3 | 15 | 3 | 2 | 2 | 2
7 | COc1cc(C2CC(c3cc4ccccc4o3)=NN2C(=O)Nc2ccc(Br)cc2)ccc1O (stereo unspecified) | 4 | 10 | 15 | 19 | 6 | 9 | 105 | 6 | 16 | 115 | 10 | 10 | 8 | 7
8 | COc1cc(C2CC(c3cc4ccccc4o3)=NN2C(=O)Cl)ccc1O (stereo unspecified) | 1 | 3 | 3 | 4 | 2 | 2 | 135 | 1 | 3 | 147 | 2 | 2 | 2 | 2

Source: ChEMBL document CHEMBL2062499, “Synthesis of benzofuran based 1,3,5-substituted pyrazole derivatives: as a new class of potent antioxidants and antimicrobials--a novel accost to amend biocompatibility” (Bioorg Med Chem Lett, 2012)
